The values below come from patent publication US10961222B2, “Chemical compound of isocitrate dehydrogenase inhibitor, and application thereof” (NANJING SANHOME PHARMACEUTICAL CO., LTD., priority 2016, dated 2021).

The assay has as its target T1, IDH2-R140Q mutant enzyme (Homo sapiens, UniProt P48735, R140Q).
T1 construct: purchased BPS 71100-1
T1 sequence (P48735 40-452 R140Q): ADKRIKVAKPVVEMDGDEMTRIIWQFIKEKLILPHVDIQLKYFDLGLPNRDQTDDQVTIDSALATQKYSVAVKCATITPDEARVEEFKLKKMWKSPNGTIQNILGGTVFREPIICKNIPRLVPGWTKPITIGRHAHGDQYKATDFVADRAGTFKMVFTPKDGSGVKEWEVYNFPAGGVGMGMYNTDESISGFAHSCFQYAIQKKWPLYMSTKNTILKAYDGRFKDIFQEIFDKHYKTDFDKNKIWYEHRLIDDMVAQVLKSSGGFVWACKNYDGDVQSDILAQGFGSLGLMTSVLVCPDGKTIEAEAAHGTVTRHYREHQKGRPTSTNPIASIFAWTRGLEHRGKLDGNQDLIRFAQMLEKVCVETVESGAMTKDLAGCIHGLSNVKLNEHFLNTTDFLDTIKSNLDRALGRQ
Nature of the assay: Inhibitory activity of compounds on IDH2-R140Q enzyme in vitro (diaphorase/resazurin fluorescence). Type of assay: biochemical. The conditions noted are these: IDH2-R140Q, pre-incubated 16 h with enzyme and NADPH, reaction 1 h with α-ketoglutarate; read-out: R140Q IC50. Here is the method:
Instrument: SpectraMax M3 Multi-Mode Microplate Reader, purchased from Molecular Devices.
In a 96-well plate, 40 μL of reaction buffer containing 2× enzyme (IDH2-WT or IDH2-R140Q) and cofactor (NADP or NADPH) was added to each well of the compound group and the DMSO control group, and 40 μL of reaction buffer containing 2× cofactor (NADP or NADPH) was added to each well of the enzyme-free control group.
20 μL of reaction buffer containing 4× compound to be tested was added to each well of the compound group. The compound was pre-formulated into 200× mother liquor with 100% DMSO; in the final reaction system, the concentration of DMSO was 0.5%. 20 μL of reaction buffer containing DMSO was added to each well of the DMSO control group; in the final reaction system, the concentration of DMSO was 0.5%.
The compound was mixed well with the enzyme and cofactor, and pre-incubated at room temperature for 16 h;
20 μL of reaction buffer containing 4× reaction substrate was added to each well. After mixed uniformly, the mixture was reacted at room temperature for 1 h.
3× termination and detection solution (it was prepared with reaction buffer, the final concentration of Diaphorase was 0.015 mg/mL, and the final concentration of Resazurin was 0.03 mM) was prepared. 40 μL of 3× termination and detection solution was added to each well of the enzyme reaction system. After mixed uniformly, the mixture was incubated at room temperature for 10 min;
Fluorescence values of two wells were obtained and averaged and the activity rate (Activity %) was calculated. The calculation formula: Activity %=(Measured data−Subtract background)/(DMSO Control−Subtract background)×100, wherein “Measured data” is fluorescence value of the compound in the pre-incubated wells, “Subtract background” is the fluorescence value of the enzyme-free control wells, and “DMSO Control” is the fluorescence value in the DMSO pre-incubated wells. Data was processed by GraphPad Prism v5.0 software and fitted to obtain IC50.
On the technique in general: Resazurin is reduced to fluorescent resorufin, in cell work by metabolically active cells.
Usually IC50 stands for the concentration at which inhibition is half-maximal. As to `CC(C)(O)C1CN(c2nc(Nc3ccnc(C(F)(F)F)c3)nc(-c3cccc(C(F)(F)F)n3)n2)C1` [Example 48, 4-(3-(2-propyl-2-ol)azetidin-1-yl)-6-(6-(trifluoromethyl)pyridin-2-yl)-N-(2-(trifluoromethyl)pyridin-4-yl)-1,3,5-triazin-2-amine], the 50% inhibitory concentration (IC50) was found to be 19 nM.
Consider `OC1CCCN(c2nc(Nc3ccnc(C(F)(F)F)c3)nc(-c3cccc(C(F)(F)F)n3)n2)C1` (stereo in doubt) [Example 9, 4-((R)-3-hydroxypiperidin-1-yl)-6-(6-(trifluoromethyl)pyridin-2-yl)-N-(2-(trifluoromethyl)pyridin-4-yl)-1,3,5-triazin-2-amine], for which the IC50 stood at 22 nM.
For `N#CC1CCCN(c2nc(Nc3ccnc(C(F)(F)F)c3)nc(-c3cccc(C(F)(F)F)n3)n2)C1` (stereo not drawn) [Example 12, 4-(3-Cyanopiperidin-1-yl)-6-(6-(trifluoromethyl)pyridin-2-yl)-N-(2-(trifluoromethyl)pyridin-4-yl)-1,3,5-triazin-2-amine] the value was 25 nM.
With `FC(F)(F)c1cc(Nc2nc(-c3cccc(C(F)(F)F)n3)nc(C3CCCCN3)n2)ccn1` (stereo not drawn) [Example 13, 4-(Piperidin-2-yl)-6-(6-(trifluoromethyl)pyridin-2-yl)-N-(2-(trifluoromethyl)pyridin-4-yl)-1,3,5-triazin-2-amine] the figure was 15 nM; with `FC1(F)CCC(c2nc(Nc3ccnc(C(F)(F)F)c3)nc(-c3cccc(C(F)(F)F)n3)n2)CC1` [Example 26, 4-(4,4-Difluorocyclohexyl)-6-(6-(trifluoromethyl)pyridin-2-yl)-N-(2-(trifluoromethyl)pyridin-4-yl)-1,3,5-triazin-2-amine], 21 nM.
With `FC1(F)CCN(c2nc(Nc3ccnc(C(F)(F)F)c3)nc(-c3cccc(C(F)(F)F)n3)n2)C1` [Example 15, 4-(3,3-Difluoropyrrolidin-1-yl)-6-(6-(trifluoromethyl)pyridin-2-yl)-N-(2-(trifluoromethyl)pyridin-4-yl)-1,3,5-triazin-2-amine] the figure was 18 nM; with `O[C@@H]1CCN(c2nc(Nc3ccnc(C(F)(F)F)c3)nc(-c3cccc(C(F)(F)F)n3)n2)C1` [Example 17, 4-((R)-3-hydroxypyrrolidin-1-yl)-6-(6-(trifluoromethyl)pyridin-2-yl)-N-(2-(trifluoromethyl)pyridin-4-yl)-1,3,5-triazin-2-amine], 23 nM.
In the case of `FC1CCCN(c2nc(Nc3ccnc(C(F)(F)F)c3)nc(-c3cccc(C(F)(F)F)n3)n2)C1` (stereo not drawn) [Example 11, 4-(3-Fluoropiperidin-1-yl)-6-(6-(trifluoromethyl)pyridin-2-yl)-N-(2-(trifluoromethyl)pyridin-4-yl)-1,3,5-triazin-2-amine], the half-maximal inhibitory concentration (IC50) is 14 nM.
For `FC(F)(F)c1cc(Nc2nc(-c3cccc(C(F)(F)F)n3)nc(N3CCNCC3)n2)ccn1` [Example 5, 4-(Piperazin-1-yl)-6-(6-(trifluoromethyl)pyridin-2-yl)-N-(2-(trifluoromethyl)pyridin-4-yl)-1,3,5-triazin-2-amine] the value was 25 nM; for `O[C@H]1CCN(c2nc(Nc3ccnc(C(F)(F)F)c3)nc(-c3cccc(C(F)(F)F)n3)n2)C1` [Example 18, 4-((S)-3-hydroxypyrrolidin-1-yl)-6-(6-(trifluoromethyl)pyridin-2-yl)-N-(2-(trifluoromethyl)pyridin-4-yl)-1,3,5-triazin-2-amine], 26 nM; for `O=S1(=O)CCN(c2nc(Nc3ccnc(C(F)(F)F)c3)nc(-c3cccc(C(F)(F)F)n3)n2)CN1` [Example 8], 18 nM.
For `FC1CCN(c2nc(Nc3ccnc(C(F)(F)F)c3)nc(-c3cccc(C(F)(F)F)n3)n2)CC1` [Example 19, 4-(4-Fluoropiperidin-1-yl)-6-(6-(trifluoromethyl)pyridin-2-yl)-N-(2-(trifluoromethyl)pyridin-4-yl)-1,3,5-triazin-2-amine] the value was 14 nM; for `FC1(F)CC=C(c2nc(Nc3ccnc(C(F)(F)F)c3)nc(-c3cccc(C(F)(F)F)n3)n2)CC1` [Example 25, 4-(4,4-Difluorocyclohexyl-1-en-1-yl)-6-(6-(trifluoromethyl)pyridin-2-yl)-N-(2-(trifluoromethyl)pyridin-4-yl)-1,3,5-triazin-2-amine], 15 nM; for `O[C@H]1CCCN(c2nc(Nc3ccnc(C(F)(F)F)c3)nc(-c3cccc(C(F)(F)F)n3)n2)C1` [Example 10, 4-((S)-3-hydroxypiperidin-1-yl)-6-(6-(trifluoromethyl)pyridin-2-yl)-N-(2-(trifluoromethyl)pyridin-4-yl)-1,3,5-triazin-2-amine], 19 nM.
For `N#C[C@@H]1CCN(c2nc(Nc3ccnc(C(F)(F)F)c3)nc(-c3cccc(C(F)(F)F)n3)n2)C1` [Example 52, 4-((R)-3-cyanopyrrolidin-1-yl)-6-(6-(trifluoromethyl)pyridin-2-yl)-N-(2-(trifluoromethyl)pyridin-4-yl)-1,3,5-triazin-2-amine] the value was 23 nM.
With `FC(F)(F)c1cc(Nc2nc(-c3cccc(C(F)(F)F)n3)nc(N3CCCCC3)n2)ccn1` [Example 50, 4-(piperidin-1-yl)-6-(6-(trifluoromethyl)pyridin-2-yl)-N-(2-(trifluoromethyl)pyridin-4-yl)-1,3,5-triazin-2-amine], the concentration for half-maximal inhibition (IC50) stood at 22 nM.
For the compound `OC1(C(F)(F)F)CCN(c2nc(Nc3ccnc(C(F)(F)F)c3)nc(-c3cccc(C(F)(F)F)n3)n2)CC1` [Example 21, 4-(4-Trifluoromethyl-4-hydroxypiperidin-1-yl)-6-(6-(trifluoromethyl)pyridin-2-yl)-N-(2-(trifluoromethyl)pyridin-4-yl)-1,3,5-triazin-2-amine], the half-maximal inhibitory concentration (IC50) amounted to 25 nM.
As for `FC(F)(F)c1cc(Nc2nc(-c3cccc(C(F)(F)F)n3)nc(N3CCCC(C(F)(F)F)C3)n2)ccn1` (stereo not drawn) [Example 7, 4-(3-(Trifluoromethyl)piperidin-1-yl)-6-(6-(trifluoromethyl)pyridin-2-yl)-N-(2-(trifluoromethyl)pyridin-4-yl)-1,3,5-triazin-2-amine], the half-maximal inhibitory concentration (IC50) was determined as 20 nM.
